The structures appear in SMILES notation.

recombinant mTOR (FLAG-tagged, residues 1362-2549), sequence (P42345 1362-2549): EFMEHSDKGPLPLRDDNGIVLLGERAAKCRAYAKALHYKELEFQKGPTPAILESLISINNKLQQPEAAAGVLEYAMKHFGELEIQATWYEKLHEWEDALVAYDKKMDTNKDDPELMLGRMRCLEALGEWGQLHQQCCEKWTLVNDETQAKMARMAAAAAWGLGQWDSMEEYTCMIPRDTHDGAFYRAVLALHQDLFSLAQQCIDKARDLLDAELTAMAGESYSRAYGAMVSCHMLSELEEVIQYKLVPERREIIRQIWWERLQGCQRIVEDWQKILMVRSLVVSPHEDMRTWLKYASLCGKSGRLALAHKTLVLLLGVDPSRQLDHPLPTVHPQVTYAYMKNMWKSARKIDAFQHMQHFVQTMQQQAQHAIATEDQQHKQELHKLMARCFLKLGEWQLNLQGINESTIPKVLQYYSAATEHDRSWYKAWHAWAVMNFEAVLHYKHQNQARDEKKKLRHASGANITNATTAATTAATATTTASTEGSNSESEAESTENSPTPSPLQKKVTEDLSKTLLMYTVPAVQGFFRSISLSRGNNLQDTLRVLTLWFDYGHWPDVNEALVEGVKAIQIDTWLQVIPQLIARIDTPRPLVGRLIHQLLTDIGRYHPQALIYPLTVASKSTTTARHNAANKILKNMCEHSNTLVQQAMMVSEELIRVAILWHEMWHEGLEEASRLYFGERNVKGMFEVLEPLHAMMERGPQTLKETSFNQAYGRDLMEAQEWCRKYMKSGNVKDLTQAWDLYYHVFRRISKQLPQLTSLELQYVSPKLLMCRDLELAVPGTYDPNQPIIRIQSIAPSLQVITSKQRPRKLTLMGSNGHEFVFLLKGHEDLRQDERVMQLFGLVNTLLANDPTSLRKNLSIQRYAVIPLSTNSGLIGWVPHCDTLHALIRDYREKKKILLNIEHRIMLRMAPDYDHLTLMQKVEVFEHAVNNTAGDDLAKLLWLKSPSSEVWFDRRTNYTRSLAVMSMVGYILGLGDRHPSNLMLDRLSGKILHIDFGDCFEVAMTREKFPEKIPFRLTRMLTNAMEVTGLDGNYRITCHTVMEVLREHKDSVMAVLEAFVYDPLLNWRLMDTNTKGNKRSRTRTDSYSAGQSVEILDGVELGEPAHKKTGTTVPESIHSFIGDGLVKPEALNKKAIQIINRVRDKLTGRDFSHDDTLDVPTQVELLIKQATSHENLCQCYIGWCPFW

The target in the test is recombinant mTOR (FLAG-tagged, residues 1362-2549) (Homo sapiens, UniProt P42345). Kind of test: In vitro mTOR kinase assay (Test (a), AlphaScreen). Type of test: biochemical. The following applies: ATP 20 μM, read-out: Test (a): IC50 versus mTOR kinase. The method, then:
(a) In Vitro mTOR Kinase Assay
Following expression in the mammalian HEK293 cell line, expressed protein was purified using the FLAG epitope tag using standard purification techniques.
Aliquots (2 μl) of each compound dilution were placed into a well of a Greiner 384-well low volume (LV) white polystyrene plate (Greiner Bio-one).
These assay solutions were incubated for 2 hours at room temperature.
The resultant signals arising from laser light excitation at 680 nm were read using a Packard Envision instrument.
The phosphorylated biotinylated peptide that is associated with AlphaScreen Streptavidin donor beads forms a complex with the p70 S6 Kinase (T389) 1A5 Monoclonal Antibody that is associated with Alphascreen Protein A acceptor beads. Upon laser light excitation at 680 nm, the donor bead: acceptor bead complex produces a signal that can be measured. Accordingly, the presence of mTOR kinase activity results in an assay signal. In the presence of an mTOR kinase inhibitor, signal strength is reduced.
mTOR enzyme inhibition for a given test compound was expressed as an IC50 value.
(In general: Bead proximity is the source of the signal in Alpha formats.)
What is called IC50 is the concentration at which inhibition is half-maximal. Turning to `CC(C)NC(=O)Nc1ccc(-c2nc(CS(C)(=O)=O)cc(N3CCOC[C@@H]3C)n2)cc1` [Example 1c, 3-[4-[4-[(3S)-3-methylmorpholin-4-yl]-6-(methylsulfonylmethyl)pyrimidin-2-yl]phenyl]-1-propan-2-yl-urea], the IC50 amounted to 0.078 µM.
Under `C[C@H]1COCCN1c1cc(C(C)(C)S(C)(=O)=O)nc(-c2ccc(NC(=O)NCCO)cc2)n1` [Example 24bj, 3-(2-hydroxyethyl)-1-[4-[4-[(3S)-3-methylmorpholin-4-yl]-6-(2-methylsulfonylpropan-2-yl)pyrimidin-2-yl]phenyl]urea] stands 0.051 µM; under `CC(C)S(=O)(=O)Cc1cc(N2CCOCC2)nc(-c2ccc(NC(=O)NC3CCN(C)CC3)cc2)n1` [Example 20o, 3-(1-methyl-4-pipendyl)-1-[4-[4-morpholin-4-yl-6-(propan-2-ylsulfonylmethyl)pyrimidin-2-yl]phenyl]urea], 1.3 µM; under `CS(=O)(=O)Cc1cc(N2CCOCC2)nc(-c2ccc(NC(=O)N3CCOCC3)cc2)n1` [Example 45g, N-[4-[4-(methylsulfonylmethyl)-6-morpholin-4-yl-pyrimidin-2-yl]phenyl]morpholine-4-carboxamide], 0.041 µM.
Take `C[C@H]1COCCN1c1cc(CNC(C)(C)CO)nc(-c2ccc(NC(=O)NC3CC3)cc2)n1` [Example 49i, 3-cyclopropyl-1-[4-[4-[[(1-hydroxy-2-methyl-propan-2-yl)amino]methyl]-6-[(3S)-3-methylmorpholin-4-yl]pyrimidin-2-yl]phenyl]urea]: the IC50 was found to be 0.016 µM.
`CNC(=O)Nc1ccc(-c2nc(CS(=O)(=O)c3ccccc3Cl)cc(N3CCOC[C@@H]3C)n2)cc1` [Example 33a, 1-[4-[4-[(2-chlorophenyl)sulfonylmethyl]-6-[(3S)-3-methylmorpholin-4-yl]pyrimidin-2-yl]phenyl]-3-methyl-urea]: the IC50 was determined as 0.06 µM.
With `CNC(=O)Nc1ccc(-c2nc(CS(=O)(=O)C(C)C)cc(N3CCOC[C@@H]3C)n2)cc1` [Example 19d, 3-methyl-1-[4-[4-[(3S)-3-methylmorpholin-4-yl]-6-(propan-2-ylsulfonylmethyl)pyrimidin-2-yl]phenyl]urea], the IC50 stood at 0.066 µM.
Consider `CNC(=O)Nc1ccc(-c2nc(CS(C)(=O)=O)cc(N3CCOC[C@@H]3C)n2)cc1` [Example 2d, 1-methyl-3-[4-[4-[(3S)-3-methylmorpholin-4-yl]-6-(methylsulfonylmethyl)pyrimidin-2-yl]phenyl]urea], for which the IC50 came out at 0.0068 µM.
With `C[C@H]1COCCN1c1cc(CS(C)(=O)=O)nc(-c2ccc(NC(=O)NCc3cncs3)cc2)n1` [Example 24j, 1-[4-[4-[(3S)-3-methylmorpholin-4-yl]-6-(methylsulfonylmethyl)pyrimidin-2-yl]phenyl]-3-(1,3-thiazol-5-ylmethyl)urea], the IC50 came out at 0.22 µM.
The result for `C[C@H]1COCCN1c1cc(C(C)(C)S(C)(=O)=O)nc(-c2cnc(NC(=O)NCc3cnn(C)c3)nc2)n1` [Example 24z, 1-[5-[4-[(3S)-3-methylmorpholin-4-yl]-6-(2-methylsulfonylpropan-2-yl)pyrimidin-2-yl]pyrimidin-2-yl]-3-[(1-methylpyrazol-4-yl)methyl]urea] reads 0.37 µM.
For `CC(=O)NCCS(=O)(=O)Cc1cc(N2CCOC[C@@H]2C)nc(-c2ccc(NC(=O)NC3CC3)cc2)n1` [Example 43j, N-[2-[[2-[4-(cyclopropylcarbamoylamino)phenyl]-6-[(3S)-3-methylmorpholin-4-yl]pyrimidin-4-yl]methylsulfonyl]ethyl]acetamide], the IC50 was 1.8 µM.
For the molecule `CN(C)C(=O)CNC(=O)Nc1ccc(-c2nc(CS(C)(=O)=O)cc(N3CCOCC3)n2)cc1` [Example 45z, N,N-dimethyl-2-[[4-[4-(methylsulfonylmethyl)-6-morpholin-4-yl-pyrimidin-2-yl]phenyl]carbamoylamino] acetamide], the IC50 came out at 1 µM.
`C[C@H]1COCCN1c1cc(CN2CCCN(C)CC2)nc(-c2ccc(NC(=O)NC3CC3)cc2)n1` [Example 49h, 3-cyclopropyl-1-[4-[4-[(4-methyl-1,4-diazepan-1-yl)methyl]-6-[(3S)-3-methylmorpholin-4-yl]pyrimidin-2-yl]phenyl]urea]: the IC50 is 0.18 µM.
As to `C[C@H]1COCCN1c1cc(CS(C)(=O)=O)nc(-c2ccc(NC(=O)N(C)C)c(F)c2)n1` [Example 2f, 3-[2-fluoro-4-[4-[(3S)-3-methylmorpholin-4-yl]-6-(methylsulfonylmethyl)pyrimidin-2-yl]phenyl]-1,1-dimethyl-urea], the IC50 is 1.7 µM.
`C[C@H]1COCCN1c1cc(C(C)(C)S(C)(=O)=O)nc(-c2ccc(NC(=O)Nc3cc[nH]n3)cc2)n1` [Example 24v, 1-[4-[4-[(3S)-3-methylmorpholin-4-yl]-6-(2-methylsulfonylpropan-2-yl)pyrimidin-2-yl]phenyl]-3-(1H-pyrazol-3-yl)urea]: the IC50 was 0.055 µM.
Under `Cc1cc(NC(=O)Nc2ccc(-c3nc(N4CCOC[C@@H]4C)cc(C(C)(C)S(C)(=O)=O)n3)cc2)no1` [Example 24t, 3-[4-[4-[(3S)-3-methylmorpholin-4-yl]-6-(2-methylsulfonylpropan-2-yl)pyrimidin-2-yl]phenyl]-1-(5-methyl-1,2-oxazol-3-yl)urea] stands 0.012 µM; under `CS(=O)(=O)Cc1cc(N2CCOCC2)nc(-c2ccc(NC(=O)NC3CC3)cc2)n1` [Example 8, 3-Cyclopropyl-1-[4-[4-(methylsulfonylmethyl)-6-morpholin-4-yl-pyrimidin-2-yl]phenyl]urea], 0.031 µM.
For the molecule `CCNC(=O)Nc1ccc(-c2nc(N3CCOC[C@@H]3C)cc(C(C)(C)S(C)(=O)=O)n2)cc1` [Example 21g, 1-ethyl-3-[4-[4-[(3S)-3-methylmorpholin-4-yl]-6-(2-methylsulfonylpropan-2-yl)pyrimidin-2-yl]phenyl]urea], the IC50 amounted to 0.02 µM.
Turning to `CS(=O)(=O)Cc1cc(N2CCOCC2)nc(-c2ccc(NC(=O)NCc3ncc[nH]3)cc2)n1` [Example 8d, 3-(1H-imidazol-2-ylmethyl)-1-[4-[4-(methylsulfonylmethyl)-6-morpholin-4-yl-pyrimidin-2-yl]phenyl]urea], the IC50 amounted to 0.57 µM.
`CC(C)S(=O)(=O)Cc1cc(N2CCOC[C@@H]2C)nc(-c2ccc(NC(=O)NC3CCN(C)CC3)cc2)n1` [Example 20t, 1-[4-[4-[(3S)-3-methylmorpholin-4-yl]-6-(propan-2-ylsulfonylmethyl)pyrimidin-2-yl]phenyl]-3-(1-methyl-4-piperidyl)urea]: the IC50 was determined as 0.6 µM.
Turning to `C[C@H]1COCCN1c1cc(CN2CCS(=O)(=O)CC2)nc(-c2ccc(NC(=O)NC3CC3)cc2)n1` [Example 50, 3-Cyclopropyl-1-[4-[4-[(1,1-dioxo-1,4-thiazinan-4-yl)methyl]-6-[(3S)-3-methylmorpholin-4-yl]pyrimidin-2-yl]phenyl]urea], the IC50 amounted to 0.0016 µM.
Under `CNC(=O)Nc1ccc(-c2nc(CS(=O)(=O)c3ncc[nH]3)cc(N3CCOC[C@@H]3C)n2)cc1` [Example 33c, 1-[4-[4-(1H-imidazol-2-ylsulfonylmethyl)-6-[(3S)-3-methylmorpholin-4-yl]pyrimidin-2-yl]phenyl]-3-methyl-urea] stands 0.0014 µM; under `COCCNC(=O)Nc1ccc(-c2nc(CS(=O)(=O)C(C)C)cc(N3CCOCC3)n2)cc1` [Example 20p, 3-(2-methoxyethyl)-1-[4-[4-morpholin-4-yl-6-(propan-2-ylsulfonylmethyl)pyrimidin-2-yl]phenyl]urea], 0.91 µM.
Under `C[C@H]1COCCN1c1cc(CS(C)(=O)=O)nc(-c2cnc(NC(=O)Nc3ccc(F)cc3)s2)n1` [Example 46d, 3-(4-fluorophenyl)-1-[5-[4-[(3S)-3-methylmorpholin-4-yl]-6-(methylsulfonylmethyl)pyrimidin-2-yl]-1,3-thiazol-2-yl]urea] stands 0.85 µM; under `C[C@H]1COCCN1c1cc(C(C)(C)S(C)(=O)=O)nc(-c2cc(F)c(NC(=O)NCc3cnn(C)c3)c(F)c2)n1` [Example 24ae, 1-[2,6-difluoro-4-[4-[(3S)-3-methylmorpholin-4-yl]-6-(2-methylsulfonylpropan-2-yl)pyrimidin-2-yl]phenyl]-3-[(1-methylpyrazol-4-yl)methyl]urea], 0.24 µM.
The result for `C[C@H]1COCCN1c1cc(CS(C)(=O)=O)nc(-c2ccc(NC(=O)N3CCC3)cc2)n1` [Example 2, N-[4-[4-[(3S)-3-methylmorpholin-4-yl]-6-(methylsulfonylmethyl)pyrimidin-2-yl]phenyl]azetidine-1-carboxamide] reads 0.31 µM; that for `C[C@H]1COCCN1c1cc(C(C)(C)S(C)(=O)=O)nc(-c2ccc(NC(=O)NCc3cnn(C)c3)nc2)n1` [Example 24bi, 1-[5-[4-[(3S)-3-methylmorpholin-4-yl]-6-(2-methylsulfonylpropan-2-yl)pyrimidin-2-yl]pyridin-2-yl]-3-[(1-methylpyrazol-4-yl)methyl]urea], 0.43 µM.
As to `C[C@H]1COCCN1c1cc(C(C)(C)S(C)(=O)=O)nc(N2CCC(NC(=O)NC3CC3)CC2)n1` [Example 24p, 3-cyclopropyl-1-[1-[4-[(3S)-3-methylmorpholin-4-yl]-6-(2-methylsulfonylpropan-2-yl)pyrimidin-2-yl]-4-piperidyl]urea], the IC50 was 0.89 µM.
`C[C@H]1COCCN1c1cc(C(C)(C)O)nc(-c2ccc(NC(=O)NC3CC3)cc2)n1` [Example 37, 3-Cyclopropyl-1-[4-[4-(2-hydroxypropan-2-yl)-6-[(3S)-3-methylmorpholin-4-yl]pyrimidin-2-yl]phenyl]urea]: the IC50 turned out to be 0.051 µM.

The record behind these values is US7750003B2, “Compounds-943” (AstraZeneca AB, priority 2006, dated 2010).
